For assay [1], the target named is T1, human recombinant serotonin (5-Hydroxytryptamine) 5-HT2C receptor (Homo sapiens, UniProt P28335).
T1 construct: expressed in transfected cells; host or cells: CHO-K1
T1 sequence (P28335 33-458): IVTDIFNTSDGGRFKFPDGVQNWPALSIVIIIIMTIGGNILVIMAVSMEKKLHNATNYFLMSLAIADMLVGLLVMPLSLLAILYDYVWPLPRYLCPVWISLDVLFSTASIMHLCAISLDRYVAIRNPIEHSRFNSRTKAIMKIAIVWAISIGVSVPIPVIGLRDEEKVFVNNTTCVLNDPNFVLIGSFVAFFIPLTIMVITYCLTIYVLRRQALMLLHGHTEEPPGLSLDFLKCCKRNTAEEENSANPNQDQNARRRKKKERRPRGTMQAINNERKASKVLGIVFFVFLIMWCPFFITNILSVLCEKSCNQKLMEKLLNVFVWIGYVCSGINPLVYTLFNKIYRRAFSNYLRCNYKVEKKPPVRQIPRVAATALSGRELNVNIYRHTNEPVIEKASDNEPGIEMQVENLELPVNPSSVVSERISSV
Briefly: Serotonin 5-HT2C radioligand binding ([3H]Mesulergine). The conditions noted are these: for Serotonin (0.1 μM) 5-HT2C, percentage inhibition of ligand binding / inhibition at 0.1 µM: compound at 0.1 μM; for inhibition at 0.1 µM: read-out: Serotonin (0.1 μM) 5-HT2C, percentage inhibition of ligand binding. How it is done:
To evaluate in radioligand binding assays the activity of compounds of the invention, human recombinant serotonin (5-Hydroxytryptamine) 5-HT2C receptor expressed in Chinese hamster ovary (CHO)-K1 cells (Wolf, W. et al, J. Neurochem. 69:1449, 1997) in a modified Tris-HCl buffer (50 mM Tris-HCl, pH 7.4, 0.1% Ascorbic Acid, 10 μM Pargyline) was used. Compounds of the invention were incubated with 1 nM [^3H]Mesulergine for 60 min. at 25° C. Non-specific binding was estimated in the presence of 1 μM Mianserin. Receptor proteins were filtered and washed, the filters were then counted to determine [^3H]Mesulergine specifically bound. Compounds were screened at 1 μM or lower, using 1% DMSO as vehicle. Biochemical assay results are presented as the percent inhibition of specific binding in Table 4.

Assay [2] has as its target T2, rat adrenergic α1A receptor (Rattus norvegicus, UniProt P43140).
T2 construct: rat adrenergic α1A receptor obtained from Wistar Rat submaxillary glands; from tissue; host or cells: Wistar rat submaxillary glands
T2 sequence (P43140 1-466): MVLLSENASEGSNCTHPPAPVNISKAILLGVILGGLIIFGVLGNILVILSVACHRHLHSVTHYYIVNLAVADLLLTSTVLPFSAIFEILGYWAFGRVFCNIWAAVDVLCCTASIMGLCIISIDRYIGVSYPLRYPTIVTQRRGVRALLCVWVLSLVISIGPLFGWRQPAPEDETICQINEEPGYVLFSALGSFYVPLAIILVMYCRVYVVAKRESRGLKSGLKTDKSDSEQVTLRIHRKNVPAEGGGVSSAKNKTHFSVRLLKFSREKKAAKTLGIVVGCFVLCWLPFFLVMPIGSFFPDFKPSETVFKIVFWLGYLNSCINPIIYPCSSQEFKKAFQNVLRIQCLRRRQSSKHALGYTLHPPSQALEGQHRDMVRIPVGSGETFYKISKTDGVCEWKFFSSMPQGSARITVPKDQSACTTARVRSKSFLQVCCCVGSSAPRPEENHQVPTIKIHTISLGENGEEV
Briefly: Adrenergic α1A radioligand binding ([3H]Prazosin). The conditions noted are these: compound at 0.1 μM; for inhibition at 0.1 µM: read-out: Adrenergic (0.1 μM) a1A, percentage inhibition of ligand binding. The protocol: To evaluate in radioligand binding assays the activity of compounds of the invention, rat adrenergic α1A receptor obtained from Wistar Rat submaxillary glands (Michel, A. et al, Br. J. Pharmacol. 98:883, 1989) in a modified Tris-HCl buffer (50 mM Tris-HCl buffer, pH 7.4, 0.5 mM EDTA) was used. Compounds of the invention were incubated with 0.25 nM [^3H]Prazosin for 60 min. at 25° C. Non-specific binding was estimated in the presence of 10 μM phentolamine. Receptor proteins were filtered and washed, the filters were then counted to determine [^3H]Prazosin specifically bound. Compounds of the invention were screened at 1 μM or lower, using 1% DMSO as vehicle. Biochemical assay results are presented as the percent inhibition of specific binding in Table 3.

For assay [3], the target named is T3, human recombinant serotonin (5-Hydroxytryptamine) 5-HT7 receptor (Homo sapiens, UniProt P34969).
T3 construct: expressed in transfected cells; host or cells: CHO
T3 sequence (P34969 whole entry): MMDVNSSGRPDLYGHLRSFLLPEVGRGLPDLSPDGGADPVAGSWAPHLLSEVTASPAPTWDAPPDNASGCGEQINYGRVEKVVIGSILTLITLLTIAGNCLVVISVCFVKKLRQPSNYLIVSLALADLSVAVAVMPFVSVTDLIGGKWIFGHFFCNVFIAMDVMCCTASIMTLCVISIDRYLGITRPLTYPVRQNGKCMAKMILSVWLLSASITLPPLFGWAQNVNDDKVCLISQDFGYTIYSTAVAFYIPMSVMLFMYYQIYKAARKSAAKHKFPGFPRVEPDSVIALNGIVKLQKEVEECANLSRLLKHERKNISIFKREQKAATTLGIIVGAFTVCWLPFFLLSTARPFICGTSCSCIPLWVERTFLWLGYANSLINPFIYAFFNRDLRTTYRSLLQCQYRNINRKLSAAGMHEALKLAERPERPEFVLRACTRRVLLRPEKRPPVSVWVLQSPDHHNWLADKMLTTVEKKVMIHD
Put plainly: Serotonin 5-HT7 radioligand binding ([3H]LSD). As to conditions: for Serotonin (0.1 μM) 5-HT7, percentage inhibition of ligand binding / inhibition at 0.1 µM: compound at 0.1 μM; for inhibition at 0.1 µM: read-out: Serotonin (0.1 μM) 5-HT7, percentage inhibition of ligand binding. The protocol: To evaluate in radioligand binding assays the activity of compounds of the invention, human recombinant serotonin (5-Hydroxytryptamine) 5-HT7 receptor expressed in Chinese hamster ovary (CHO) cells (Roth, B. et al, J. Pharmacol. Exp. Ther. 268:1403, 1994; Shen, Y. et al, J. Biol. Chem. 268:18200, 1993) in a modified Tris-HCl buffer (50 mM Tris-HCl, pH 7.4, 10 mM MgCl2, 0.5 mM EDTA) was used. Compounds of invention were incubated with 5.5 nM [^3H]Lysergic acid diethylamide (LSD) for 120 min. at 25° C. Non-specific binding was estimated in the presence of 10 μM Serotonin (5-HT). Receptor proteins were filtered and washed, the filters were then counted to determine [^3H]LSD specifically bound. Compounds were screened at 1 μM or lower, using 1% DMSO as vehicle. Biochemical assay results are presented as the percent inhibition of specific binding in Table 4.

Assay [4] has as its target T4, human recombinant adrenergic α2C receptor (Homo sapiens, UniProt P18825).
T4 construct: expressed in transfected cells; host or cells: insect Sf9 cells
T4 sequence (P18825 1-462): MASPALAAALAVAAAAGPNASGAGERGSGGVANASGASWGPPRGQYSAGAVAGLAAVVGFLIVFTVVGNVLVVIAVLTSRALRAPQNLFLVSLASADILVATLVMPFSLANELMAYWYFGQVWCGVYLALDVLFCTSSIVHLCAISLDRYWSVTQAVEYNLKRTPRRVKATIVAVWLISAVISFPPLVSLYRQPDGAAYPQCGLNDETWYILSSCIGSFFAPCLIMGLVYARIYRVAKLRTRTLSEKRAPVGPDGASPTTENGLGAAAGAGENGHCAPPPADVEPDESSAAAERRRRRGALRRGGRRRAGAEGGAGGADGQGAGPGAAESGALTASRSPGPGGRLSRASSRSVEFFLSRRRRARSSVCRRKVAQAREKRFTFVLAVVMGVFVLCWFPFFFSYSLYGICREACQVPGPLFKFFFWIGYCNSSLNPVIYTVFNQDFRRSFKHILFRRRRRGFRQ
Briefly: Adrenergic α2C radioligand binding ([3H]MK-912). As to conditions: compound at 0.1 μM; for inhibition at 0.1 µM: read-out: Adrenergic (0.1 μM) a2C, percentage inhibition of ligand binding. The protocol: To evaluate in radioligand binding assays the activity of compounds of the invention, human recombinant adrenergic α2C receptor expressed in insect Sf9 cells (Uhlen, S. et al, J. Pharmacol. Exp. Ther. 271:1558, 1994) in a modified Tris-HCl buffer (50 mM Tris-HCl, pH 7.4, 12.5 mM MgCl2, 2 mM EDTA) was used. Compounds of the invention were incubated with 1 nM [^3H]MK-912 for 60 min. at 25° C. Non-specific binding was estimated in the presence of 10 μM WB-4101. Receptor proteins were filtered and washed, the filters were then counted to determine [^3H]MK-912 specifically bound. Compounds were screened at 1 μM or lower, using 1% DMSO as vehicle. Biochemical assay results are presented as the percent inhibition of specific binding in Table 3.

As for `Cc1cc2c3c(c1)c1c(n3CC(C)(c3ccc(C)nc3)OC2C)CCN(C)C1` (stereo not drawn) [Compound 164], in assay [1], the “Serotonin (0.1 μM) 5-HT2C, percentage inhibition of ligand binding” value was 2%. Besides, in assay [2], the “Adrenergic (0.1 μM) a1A, percentage inhibition of ligand binding” value is recorded as −7%. Further, the “Serotonin (0.1 μM) 5-HT7, percentage inhibition of ligand binding” value in assay [3] was −12%. Besides, the “Adrenergic (0.1 μM) a2C, percentage inhibition of ligand binding” value in assay [4] is listed as −4%.

The inhibition is the relative decrease from the control value, in per cent. `Cc1cc2c3c(c1)c1c(n3CC(c3ccc(F)cc3)C2)CCN(C)C1` (stereo not drawn) [Compound 3]: the inhibition at 0.1 µM in assay [1] was determined as 54%. For the same compound, the inhibition at 1 µM in assay [1] (compound at 1 μM, read-out: Serotonin (1 μM) 5-HT2C, percentage inhibition of ligand binding) came out at 95%; in assay [3] (compound at 1 μM, read-out: Serotonin (1 μM) 5-HT7, percentage inhibition of ligand binding), 53%.

Consider `Cc1cc2c3c(c1)c1c(n3CC(C)(c3ccncc3)OC(C)C2)CCN(C)C1` (stereo not drawn) [Compound 165], for which the inhibition at 0.1 µM in assay [1] is 14%; in assay [2] it was 11%; in assay [3], -2%; in assay [4], 20%.

Turning to `Cc1cc2c3c(c1)c1c(n3CC(C)(c3ccc(C)nc3)OC2C)CCN(C)C1` (stereo not drawn) [Compound 161], the “Serotonin (0.1 μM) 5-HT2C, percentage inhibition of ligand binding” value in assay [1] is recorded as −4%. In assay [2], the “Adrenergic (0.1 μM) a1A, percentage inhibition of ligand binding” value is reported as −8%. Also, the “Serotonin (0.1 μM) 5-HT7, percentage inhibition of ligand binding” value in assay [3] is reported as −8%. In addition, the “Adrenergic (0.1 μM) a2C, percentage inhibition of ligand binding” value in assay [4] turned out to be 3%.

Take `Cc1cc2c3c(c1)c1c(n3C[C@@](C)(c3ccncc3)O[C@H]2C)CCN(C)C1` [Compound 162]: the inhibition at 0.1 µM in assay [1] was 6%; in assay [2] it was -3%; in assay [3] it was 5%; in assay [4] it was 13%.

On to `Cc1cc2c3c(c1)c1c(n3C[C@](C)(c3ccncc3)O[C@H]2C)CCN(C)C1` [Compound 163], for which the inhibition at 0.1 µM in assay [1] is 5%; in assay [2] it was -17%; in assay [3], -3%; in assay [4], 12%.

Consider `Cc1cc2c3c(c1)c1c(n3CC(C)(c3ccc(C)nc3)OC(C)C2)CCN(C)C1` (stereo not drawn) [Compound 160], for which the inhibition at 0.1 µM is 7% in assay [1], -5% in assay [2], 14% in assay [3] and 16% in assay [4].

(Values after patent US9193728B2, “Fused tetracyclic pyrido [4,3-B] indole and pyrido [3,4-B] indole derivatives and methods of use” (Medivation Technologies, Inc., priority 2010, dated 2015).)
